Source: patent US20130012548A1, “DEUTERIUM-SUBSTITUTED OMEGA-DIPHENYLUREA AND DERIVATIVES THEREOF AND PHARMACEUTICAL COMPOSITIONS COMPRISING THE COMPOUNDS” (SUZHOU ZELGEN BIOPHARMACEUTICAL CO., LTD., priority 2010, published 2013)

Tests used:
[1] = Pharmacokinetic evaluation in rats; assay type: in vivo; details: Sprague-Dawley, rat, serum, male SD rats, single oral dose 3 mg/kg, in 30% PEG400; for CL/F: read-out: apparent clearance (converted); for AUC(0-inf): read-out: area under the curve (AUC0-∞); for half-life: read-out: half-life (T1/2) (converted)
Experimental: 8 male Sprague-Dawley rats (7-8 weeks old and body weight about 210 g) were divided into two groups, 4 in each group (rat No.: control group was 13-16; experimental group was 9-12), and orally administrated a single dose at 3 mg/kg of either compound: (a) the undeuterated N-(4-chloro-3-(trifluoromethyl)phenyl)-N′-(4-(2-(N-methyl-aminoformyl)-4-pyridyloxy)phenyl)urea (control compound CM4306) or (b) N-(4-chloro-3-(trifluoromethyl)phenyl)-N′-(4-(2-(N-(methyl-d3)-aminoformyl)-4-pyridyloxy)phenyl)urea (Compound CM4307 of the invention) prepared in Example 1. The pharmacokinetics differences were compared.
The rats were fed with the standard feed, given water and chlordiazepoxide. Chlordiazepoxide was stopped at the last night before experiment, and given again two hours after the administration of the compound. The rats were fasted for 16 hours before the test. The compound was dissolved in 30% PEG400. The time for collecting orbital blood was 0.083, 0.25, 0.5, 1, 2, 4, 6, 8 and 24 hours after administrating the compounds.
The rats were anaesthetized briefly by inhaling ether. A 300 μL orbital blood sample was collected into the tubes containing a 30 μl 1% heparin saline solution. The tubes were dried overnight at 60° C. before being used. After the blood samples were sequentially collected, the rats were anaesthetized by ether and sacrificed.
After the blood samples were collected, the tubes were gently reversed at least five times immediately to mix the contents sufficiently, and placed on the ice. The blood samples were centrifuged at 4° C. at 5000 rpm for 5 minutes to separate the serum and red blood cells. 100 μL serum was removed to a clean plastic centrifugal tube by pipettor, and the name of the compound and time point were labeled on the tube. Serum was stored at −80° C. before LC-MS analysis.

[2] = tested on: Human Hepatocellular Carcinoma SMMC-7721; test: Inhibition of tumor growth of SMMC-7721 in nude mice xenograft model; assay type: in vivo, Balb/c nu/nu nude mice; details: 100 mg/kg po qd × 2 weeks
Experimental: 70 Balb/c nu/nu nude mice, 6 weeks old, female, were bought from Shanghai Experimental Animal Resource Center (Shanghai B&K Universal Group Limited).
SMMC-7721 cells were commercially available from Shanghai Institutes for Biological Science, CAS (Shanghai, China).
The establishment of tumor nude mice xenograft model: SMMC-7721 cells in logarithmic growth period were cultured. After cell number was counted, the cells were suspended in 1×PBS, and the number of the cell in suspension was adjusted to 1.5×10^7/ml. The tumor cells were inoculated under the skin of right armpit of nude mice with a 1 ml syringe, 3×10^6/0.2 ml/mice. 70 nude mice were inoculated in total.
When the tumor size reached 30-130 mm^3, 58 mice were divided randomly into different groups. […]
Animal body weight and tumor size were tested twice a week during the experiment. Clinical symptoms were recorded every day. At the end of the administration, the tumor size was recorded by taking pictures. […]
The formula for calculating the tumor volume (TV) is: TV=a×b^2/2, wherein a, b independently represent the length and the breadth of the tumor. The formula for calculating the relative tumor volume (RTV) is: RTV=Vt/V0, wherein V0 is the tumor volume at the beginning of the administration, and Vt is the tumor […] when measured. […]

Structure (SMILES) | CL/F [1] [mL/min/kg] | AUC(0-inf) [1] [ng·h/mL] | half-life [1] [h] | increase of relative value of tumor inhibition compared with CM4306 (32.2%/19.6%−1) [2]
[2H]C([2H])([2H])NC(=O)c1cc(Oc2ccc(NC(=O)Nc3ccc(Cl)c(C(F)(F)F)c3)cc2)ccn1 [CM4307, N-(4-chloro-3-(trifluoromethyl)phenyl)-N′-(4-(2-(N-(methyl-d3)aminoformyl)-4-pyridyloxy)phenyl)urea] | 4.58 | 11300 ± 2470 | 11.3 ± 2.1 | about 60%
CNC(=O)c1cc(Oc2ccc(NC(=O)Nc3ccc(Cl)c(C(F)(F)F)c3)cc2)ccn1 [CM4306, N-(4-chloro-3-(trifluoromethyl)phenyl)-N′-(4-(2-(N-methylaminoformyl)-4-pyridyloxy)phenyl)urea, reference compound] | 6.83 | 7330 ± 336 | 8.6 ± 1.4 | 
